Results on 1 substance are retold here after patent US20180296630A1, “METHODS AND COMPOSITIONS FOR PREVENTING OR TREATING OPHTHALMIC CONDITIONS” (Stealth BioTherapeutics Corp, priority 2012, published 2018).

Some results are limits rather than exact numbers.

Test [1] deals with human retinal epithelial cells (HREC). The experiment in a line: Intracellular ROS in HRECs exposed to 30 mM glucose (dihydroethidium). Conditions: 100 nM, 24 h and 48 h. It counts as cell-based. On the procedure: FIGS. 2A-2F is a series of micrographs showing co-treatment with D-Arg-2′,6′-Dmt-Lys-Phe-NH2 (SS-31) reduced intracellular reactive oxygen species (ROS) in HRECs exposed to 30 mM glucose for 24 h and 48 h. Intracellular ROS was measured using dihydroethidium. 2A, 2D normal culture media; 2B, 2E 30 mM glucose; and 2C, 2F 30 mM glucose+D-Arg-2′,6′-Dmt-Lys-Phe-NH2 (SS-31) (100 nM) at 24 and 48 h, respectively.
The survival of HRECs in high glucose co-treated with D-Arg-2′,6′-Dmt-Lys-Phe-NH2 was tested at 24 h and 48 h.

Another test deals with Trx2 in HRECs. The experiment in a line: Trx2 expression in high glucose-treated HRECs (real-time PCR, Western blot). It counts as cell-based, human. Conditions: 30 mM glucose co-treatment; 24 h and 48 h. On the procedure:
D-Arg-2′,6′-Dmt-Lys-Phe-NH2 increased the expression of Trx2 in the high glucose-treated HRECs. […] The mRNA expression level of Trx2 was measured by quantitative real-time PCR. Relative mRNA levels of Trx2 were normalized by 18S mRNA levels (* p<0.05 vs. the normal glucose medium group and the 30 mM high glucose treated group). Three independent samples were used for each time point.
On the technique in general: In qPCR the cycle at which signal appears reflects the starting amount.

Another test relates to GTM and HTM cells. The experiment in a line: Oxidative stress induced by hydrogen peroxide in GTM and HTM cells (collective conclusion). It is filed as cell-based, human. As for the experimental part: The cells were divided into three groups: “Group A” cells were exposed to hydrogen peroxide prior to administration of D-Arg-2′,6′-Dmt-Lys-Phe-NH2. “Group B” cells were exposed to D-Arg-2′,6′-Dmt-Lys-Phe-NH2 prior to administration of hydrogen peroxide. “Group C” cells were administered D-Arg-2′,6′-Dmt-Lys-Phe-NH2 and hydrogen peroxide simultaneously.
The effects of D-Arg-2′,6′-Dmt-Lys-Phe-NH2 on sustained oxidative injury of GTM and HTM cells was examined. Cells were pre-treated with 10^−6, 10^−7, 10^−8M of D-Arg-2′,6′-Dmt-Lys-Phe-NH2 for 1 h, and then incubated with 200 μM H2O2 for 24 h to investigate the protective effect of D-Arg-2′,6′-Dmt-Lys-Phe-NH2 in sustained oxidative stress.

Test [2] relates to streptozocin diabetic rats. The experiment in a line: Quantitative MRI of the retina in diabetic rats. It is filed as in vivo, SD rats. As for the experimental part: 7, issue 1. Glycated hemoglobin and retinal thickness ex vivo (histology) will also be measured in control, diabetic groups and D-Arg-2′,6′-Dmt-Lys-Phe-NH2 treatment groups.
Diabetes is induced with intraperitoneal injection of streptozocin (60 mg/kg) within 5 minutes of its preparation in 0.01 M citrate buffer (pH 4.5) in male SD rats with body weights of approximately 200 g after overnight fast. Diabetes is verified 3 days later by the presence of plasma hyperglycemia (>300 mg/dl) and elevated urine volume (more than 60 ml/d) in nonfasted rats. Rat body weight and blood glucose levels are monitored weekly. Subtherapeutic levels of insulin (0-2 U neutral protamine Hagedorn insulin administered subcutaneously daily) is administered to maintain blood glucose levels between 450 and 550 mg/dl without urine ketones. Glycated hemoglobin is measured after 2 months of diabetes (Glyco-Tek affinity columns, kit 5351; Helena Laboratories, Beaumont, Tex.).
Nine month old diabetic rats are treated with D-Arg-2′,6′-Dmt-Lys-Phe-NH2 by injection, either intraperitoneal (IP) or subcutaneous (SC), with 1, 5, or 10 mg/kg D-Arg-2′,6′-Dmt-Lys-Phe-NH2. Injections are once/day. After 7 days of treatment, the retinas of the rats in the treatment and control groups are evaluated.
Male SD rats are examined by MRI by the methods of Berkowitz et al. Central retinal thickness at 2, 3, 4, 6, and 9 months after induction of diabetes is measured, and in age-matched non-diabetic controls. At day 7 after D-Arg-2′,6′-Dmt-Lys-Phe-NH2 treatment, rats are again evaluated via MRI according to the methods of Berkowitz et al.

As for D-Arg-2′,6′-Dmt-Lys-Phe-NH2, the “production of ROS” value in test [1] is reported as “reduced”. Also, the “expression of Trx2” value in the test with Trx2 in HRECs is on record as “increased”. Also, in the test with GTM and HTM cells, the “concentration at which sustained and acute oxidative stress induced by hydrogen peroxide can be prevented” value is > 10^−9 M. Besides, the Apparent diffusion coefficient result in test [2] (1 mg/kg IP or SC injection), in test [2] (5 mg/kg IP or SC injection) and in test [2] (10 mg/kg IP or SC injection) was “N to N+” throughout. The Intraretinal water content result in test [2] (1 mg/kg IP or SC injection), in test [2] (5 mg/kg IP or SC injection) and in test [2] (10 mg/kg IP or SC injection) was “N to N+” each time. Moreover, the Retinal thickness result in test [2] (1 mg/kg IP or SC injection), in test [2] (5 mg/kg IP or SC injection) and in test [2] (10 mg/kg IP or SC injection) was “N to N+” throughout.
